# Measurements taken from patent publication US6914045B2, “Glycopeptide antibiotics” (Wyeth Holdings Corporation, priority 2001, dated 2005).
# How the values were obtained:
# Assay in all cases: in vitro antibacterial evaluation, MIC by broth dilution
# Format in all cases: cell-based
# Staphylococcus sp. = conditions: broth dilution, 18 hours at 35° C.; for MIC Staphylococcus aureus (GC 1131): strain GC 1131; for MIC Staphylococcus aureus (ATCC 29213): strain ATCC 29213; for MIC Staphylococcus aureus (GC 3051): strain GC 3051; for MIC Staphylococcus aureus (GC 3053): strain GC 3053; for MIC Staphylococcus aureus (GC 4541): strain GC 4541; for MIC Staphylococcus aureus (GC 4542): strain GC 4542; for MIC Staphylococcus aureus-SMITH (GC 4543): strain GC 4543; for MIC Staphylococcus aureus (GC 4544): strain GC 4544; for MIC Staphylococcus aureus (GC 4545): strain GC 4545; for MIC Staphylococcus haemolyticus (GC 4546): strain GC 4546; for MIC Coagulase Negative Staphylococcus (GC 4547): strain GC 4547; for MIC Coagulase Negative Staphylococcus (GC 4548): strain GC 4548; for MIC Coagulase Negative Staphylococcus (GC 4549): strain GC 4549; for MIC Coagulase Negative Staphylococcus (GC 4551): strain GC 4551
# How it was run: (§1)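 Step 1: dilute antibiotic across 64-0.06 μg/mL in Muller-Hinton II […]. Step 2: inoculate at 5×10^5 CFU/mL.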
# Streptococcus sp. = conditions: broth dilution, 18 hours at 35° C.
# How it was run: as §1
# Enterococcus sp. = conditions: broth dilution, 18 hours at 35° C.
# How it was run: as §1
# Escherichia coli = conditions: 18 hours at 35° C.
# [1] = inoculum 5×10^5 CFU/mL, strain ATCC 6301
# [2] = inoculum 5×10^5 CFU/mL, strain GC 1894
# [3] = inoculum 5×10^5 CFU/mL, strain GC 4563
# [4] = inoculum 5×10^5 CFU/mL, strain GC 4564
# [5] = inoculum 5×10^5 CFU/mL, strain GC 4565
# [6] = inoculum 5×10^5 CFU/mL, strain ATCC 29212
# [7] = inoculum 5×10^5 CFU/mL, strain GC 2242
# [8] = inoculum 5×10^5 CFU/mL, strain GC 2243
# [9] = inoculum 5×10^5 CFU/mL, strain GC 2691
# [10] = inoculum 5×10^5 CFU/mL, strain GC 3059
# [11] = inoculum 5×10^5 CFU/mL, strain GC 4552
# [12] = inoculum 5×10^5 CFU/mL, strain GC 4553
# [13] = inoculum 5×10^5 CFU/mL, strain GC 4554
# [14] = inoculum 5×10^5 CFU/mL, strain GC 4556
# [15] = inoculum 5×10^5 CFU/mL, strain GC 4557
# [16] = inoculum 5×10^5 CFU/mL, strain GC 4558
# [17] = inoculum 5×10^5 CFU/mL, strain GC 6189
compound,measurement,setting,value
N=C1NCC(C(O)C2NC(=O)C(Cc3ccc(OC4OC(CO)C(OC5OC6COC(Cc7ccccc7)OC6C(O)C5O)C(O)C4O)cc3)NC(=O)C(CC3CCCCC3)NC(=O)CNC(=O)C(CO)NC(=O)C(C(O)C3CNC(=N)N3C3OC(CO)C(O)C(O)C3O)NC2=O)N1 (stereo not drawn) [Example 200],MIC Staphylococcus aureus (GC 1131),Staphylococcus sp.; inoculum 5×10^5 CFU/mL,2 µg/mL
same,MIC Staphylococcus aureus (ATCC 29213),Staphylococcus sp.,1 µg/mL
same,MIC Staphylococcus aureus (GC 1131),Staphylococcus sp.,2 µg/mL
same,MIC Staphylococcus aureus (GC 3051),Staphylococcus sp.,1 µg/mL
same,MIC Staphylococcus aureus (GC 3053),Staphylococcus sp.,2 µg/mL
same,MIC Staphylococcus aureus (GC 4541),Staphylococcus sp.,1 µg/mL
same,MIC Staphylococcus aureus (GC 4542),Staphylococcus sp.,1 µg/mL
same,MIC Staphylococcus aureus-SMITH (GC 4543),Staphylococcus sp.,1 µg/mL
same,MIC Staphylococcus aureus (GC 4544),Staphylococcus sp.,2 µg/mL
same,MIC Staphylococcus aureus (GC 4545),Staphylococcus sp.,1 µg/mL
same,MIC Staphylococcus haemolyticus (GC 4546),Staphylococcus sp.,1 µg/mL
same,MIC Coagulase Negative Staphylococcus (GC 4547),Staphylococcus sp.,2 µg/mL
same,MIC Coagulase Negative Staphylococcus (GC 4548),Staphylococcus sp.,1 µg/mL
same,MIC Coagulase Negative Staphylococcus (GC 4549),Staphylococcus sp.,1 µg/mL
same,MIC Coagulase Negative Staphylococcus (GC 4551),Staphylococcus sp.,2 µg/mL
same,MIC Streptococcus agalactiae (GC 4564),Streptococcus sp.,0.12 µg/mL
same,MIC Streptococcus pneumoniae (ATCC 6301),Streptococcus sp.,<0.06 µg/mL
same,MIC Streptococcus pneumoniae (GC 1894),Streptococcus sp.,<0.06 µg/mL
same,MIC Streptococcus pneumoniae (GC 4565),Streptococcus sp.,<0.06 µg/mL
same,MIC Streptococcus pyogenes (GC 4563),Streptococcus sp.,<0.06 µg/mL
same,MIC Streptococcus pneumoniae (ATCC 6301),Streptococcus sp.; [1],<0.06 µg/mL
same,MIC Streptococcus pneumoniae (GC 1894),Streptococcus sp.; [2],<0.06 µg/mL
same,MIC Streptococcus pyogenes (GC 4563),Streptococcus sp.; [3],<0.06 µg/mL
same,MIC Streptococcus agalactiae (GC 4564),Streptococcus sp.; [4],0.12 µg/mL
same,MIC Streptococcus pneumoniae (GC 4565),Streptococcus sp.; [5],<0.06 µg/mL
same,MIC Enterococcus avium (GC 4558),Enterococcus sp.,4 µg/mL
same,MIC Enterococcus faecalis (ATCC 29212),Enterococcus sp.,4 µg/mL
same,MIC Enterococcus faecalis (GC 2242),Enterococcus sp.,0.5 µg/mL
same,MIC Enterococcus faecalis (GC 2691),Enterococcus sp.,4 µg/mL
same,MIC Enterococcus faecalis (GC 3059),Enterococcus sp.,2 µg/mL
same,MIC Enterococcus faecalis (GC 4552),Enterococcus sp.,2 µg/mL
same,MIC Enterococcus faecalis (GC 4553),Enterococcus sp.,4 µg/mL
same,MIC Enterococcus faecalis (GC 4554),Enterococcus sp.,4 µg/mL
same,MIC Enterococcus faecalis (GC 6189),Enterococcus sp.,2 µg/mL
same,MIC Enterococcus faecium (GC 2243),Enterococcus sp.,4 µg/mL
same,MIC Enterococcus faecium (GC 4556),Enterococcus sp.,4 µg/mL
same,MIC Enterococcus faecium (GC 4557),Enterococcus sp.,2 µg/mL
same,MIC Enterococcus faecalis (ATCC 29212),Enterococcus sp.; [6],4 µg/mL
same,MIC Enterococcus faecalis (GC 2242),Enterococcus sp.; [7],0.5 µg/mL
same,MIC Enterococcus faecium (GC 2243),Enterococcus sp.; [8],4 µg/mL
same,MIC Enterococcus faecalis (GC 2691),Enterococcus sp.; [9],4 µg/mL
same,MIC Enterococcus faecalis (GC 3059),Enterococcus sp.; [10],2 µg/mL
same,MIC Enterococcus faecalis (GC 4552),Enterococcus sp.; [11],2 µg/mL
same,MIC Enterococcus faecalis (GC 4553),Enterococcus sp.; [12],4 µg/mL
same,MIC Enterococcus faecalis (GC 4554),Enterococcus sp.; [13],4 µg/mL
same,MIC Enterococcus faecium (GC 4556),Enterococcus sp.; [14],4 µg/mL
same,MIC Enterococcus faecium (GC 4557),Enterococcus sp.; [15],2 µg/mL
same,MIC Enterococcus avium (GC 4558),Enterococcus sp.; [16],4 µg/mL
same,MIC Enterococcus faecalis (GC 6189),Enterococcus sp.; [17],2 µg/mL
same,MIC Escherichia coli (ATCC 25922),Escherichia coli,32 µg/mL
same,MIC Escherichia coli (GC 4559),Escherichia coli,32 µg/mL
same,MIC Escherichia coli (GC 4560),Escherichia coli,1 µg/mL
CC(C)=CCCC(C)=CCCC(C)=CCOc1cccc(C2OCC3OC(OC4C(CO)OC(Oc5ccc(CC6NC(=O)C(C(C)c7ccccc7)NC(=O)CNC(=O)C(CO)NC(=O)C(C(O)C7CNC(=N)N7C7OC(CO)C(O)C(O)C7O)NC(=O)C(C(O)C7CNC(=N)N7)NC6=O)cc5)C(O)C4O)C(O)C(O)C3O2)c1 (stereo not drawn) [Example 185],MIC Staphylococcus aureus (GC 1131),Staphylococcus sp.; inoculum 5×10^5 CFU/mL,>64 µg/mL
same,MIC Staphylococcus aureus (ATCC 29213),Staphylococcus sp.,>64 µg/mL
same,MIC Staphylococcus aureus (GC 1131),Staphylococcus sp.,>64 µg/mL
same,MIC Staphylococcus aureus (GC 3051),Staphylococcus sp.,>64 µg/mL
same,MIC Staphylococcus aureus (GC 3053),Staphylococcus sp.,>64 µg/mL
same,MIC Staphylococcus aureus (GC 4541),Staphylococcus sp.,>64 µg/mL
same,MIC Staphylococcus aureus (GC 4542),Staphylococcus sp.,>64 µg/mL
same,MIC Staphylococcus aureus-SMITH (GC 4543),Staphylococcus sp.,>64 µg/mL
same,MIC Staphylococcus aureus (GC 4544),Staphylococcus sp.,>64 µg/mL
same,MIC Staphylococcus aureus (GC 4545),Staphylococcus sp.,>64 µg/mL
same,MIC Staphylococcus haemolyticus (GC 4546),Staphylococcus sp.,>64 µg/mL
same,MIC Coagulase Negative Staphylococcus (GC 4547),Staphylococcus sp.,>64 µg/mL
same,MIC Coagulase Negative Staphylococcus (GC 4548),Staphylococcus sp.,>64 µg/mL
same,MIC Coagulase Negative Staphylococcus (GC 4549),Staphylococcus sp.,>64 µg/mL
same,MIC Coagulase Negative Staphylococcus (GC 4551),Staphylococcus sp.,>64 µg/mL
same,MIC Coagulase Negative Staphylococcus (GC 6257),Staphylococcus sp.; strain GC 6257,>64 µg/mL
same,MIC Streptococcus agalactiae (GC 4564),Streptococcus sp.,1 µg/mL
same,MIC Streptococcus pneumoniae (ATCC 6301),Streptococcus sp.,0.12 µg/mL
same,MIC Streptococcus pneumoniae (GC 1894),Streptococcus sp.,<0.06 µg/mL
same,MIC Streptococcus pneumoniae (GC 4565),Streptococcus sp.,<0.06 µg/mL
same,MIC Streptococcus pyogenes (GC 4563),Streptococcus sp.,16 µg/mL
same,MIC Streptococcus pneumoniae (ATCC 6301),Streptococcus sp.; [1],0.12 µg/mL
same,MIC Streptococcus pneumoniae (GC 1894),Streptococcus sp.; [2],<0.06 µg/mL
same,MIC Streptococcus pyogenes (GC 4563),Streptococcus sp.; [3],16 µg/mL
same,MIC Streptococcus agalactiae (GC 4564),Streptococcus sp.; [4],1 µg/mL
same,MIC Streptococcus pneumoniae (GC 4565),Streptococcus sp.; [5],<0.06 µg/mL
same,MIC Enterococcus avium (GC 4558),Enterococcus sp.,64 µg/mL
same,MIC Enterococcus faecalis (ATCC 29212),Enterococcus sp.,>64 µg/mL
same,MIC Enterococcus faecalis (GC 2242),Enterococcus sp.,>64 µg/mL
same,MIC Enterococcus faecalis (GC 2691),Enterococcus sp.,>64 µg/mL
same,MIC Enterococcus faecalis (GC 3059),Enterococcus sp.,>64 µg/mL
same,MIC Enterococcus faecalis (GC 4552),Enterococcus sp.,>64 µg/mL
same,MIC Enterococcus faecalis (GC 4553),Enterococcus sp.,32 µg/mL
same,MIC Enterococcus faecalis (GC 4554),Enterococcus sp.,>64 µg/mL
same,MIC Enterococcus faecalis (GC 6189),Enterococcus sp.,>64 µg/mL
same,MIC Enterococcus faecium (GC 2243),Enterococcus sp.,32 µg/mL
same,MIC Enterococcus faecium (GC 4556),Enterococcus sp.,>64 µg/mL
same,MIC Enterococcus faecium (GC 4557),Enterococcus sp.,>64 µg/mL
same,MIC Enterococcus faecalis (ATCC 29212),Enterococcus sp.; [6],>64 µg/mL
same,MIC Enterococcus faecalis (GC 2242),Enterococcus sp.; [7],>64 µg/mL
same,MIC Enterococcus faecium (GC 2243),Enterococcus sp.; [8],32 µg/mL
same,MIC Enterococcus faecalis (GC 2691),Enterococcus sp.; [9],>64 µg/mL
same,MIC Enterococcus faecalis (GC 3059),Enterococcus sp.; [10],>64 µg/mL
same,MIC Enterococcus faecalis (GC 4552),Enterococcus sp.; [11],>64 µg/mL
same,MIC Enterococcus faecalis (GC 4553),Enterococcus sp.; [12],32 µg/mL
same,MIC Enterococcus faecalis (GC 4554),Enterococcus sp.; [13],>64 µg/mL
same,MIC Enterococcus faecium (GC 4556),Enterococcus sp.; [14],>64 µg/mL
same,MIC Enterococcus faecium (GC 4557),Enterococcus sp.; [15],>64 µg/mL
same,MIC Enterococcus avium (GC 4558),Enterococcus sp.; [16],64 µg/mL
same,MIC Enterococcus faecalis (GC 6189),Enterococcus sp.; [17],>64 µg/mL
same,MIC Escherichia coli (ATCC 25922),Escherichia coli,>64 µg/mL
same,MIC Escherichia coli (GC 4559),Escherichia coli,>64 µg/mL
same,MIC Escherichia coli (GC 4560),Escherichia coli,>64 µg/mL
